From patent publication US6113907A, “Pharmaceutical grade St. John's Wort” (priority 1997, dated 2000)
Values joined by “and” are separate entries in the source; they are usually repeats but may differ in a detail not shown here. Identical values can stand only once. Counter-ions that a name gives are not always drawn. Like-named read-outs stand apart in the source and are kept apart here.

Legend:
serotonin transporter [1] = molecular target: T1, serotonin transporter (Rattus norvegicus, UniProt P31652); experiment: serotonin transporter assay, [125I]-RTI-121, rat cerebral cortical membranes; type: binding
T1 construct: Cerebral cortical membranes derived from male Wistar rats; from tissue; host or cells: cerebral cortical membranes of male Wistar rats

serotonin transporter [2] = molecular target: T1, serotonin transporter; conditions: cited from earlier work
β-adrenergic receptors = conditions: rat frontal cortex, subchronic (250 mg/kg for 2 weeks; imipramine similar doses); cited from earlier work
bacteria, fungi = conditions: hyperforin, adhyperforin: dilutions of 1:400 or 1:200; cited from earlier work
[3] = oil preparations, exposed to light; cited from earlier work
adenosine receptor = adenosine receptor non-selective (ADNS), [3H] NECA, bovine striatal membranes; type: binding; conditions: for ADNS: 10^-4, 60 min, 100 µM
Procedure: To determine the inhibitory activity of the substances for the dopamine receptor (dp) the following assay was preformed. A partial receptor preparation was prepared from bovine striatal membranes using [^3 H] spiperone as the ligand at a final concentration of 0.3 nM. To determine non-specific binding cold spiperone was tested at 1 μM. The reactions were carried out in 50 mM Tris-HCl (pH 7.7) containing 120 mM NaCl, 5 mM KCl, 2 mM CaCl2 and 1 mM MgCl2 at 37° C. for 60 minutes. […] The inhibitory properties of the substances for binding of ligand to the adenosine receptor (ADNS) was measured using a partially purified receptor preparation made from bovine striatal membranes. The radioligand used was [^3 H] 5'-N-ethylcarboxyamidoadenosine (NECA) at a final ligand concentration of 4 nM. Non-specific binding was determined in the presence of 10 μM NECA. The reactions were carried out in 50 mM Tris-HCL (pH 7.7) for 60 minutes at 25° C. […] To measure the inhibitory activity of the substances for the opiate receptor (Opiate) receptor was partially purified from rat forebrains. [^3 H] naloxone at 1 nM as the ligand used. Non-specific binding was determined in the presence of 1 μM of naloxone. The assays were carried out in 50 mM Tris-HCl (pH 7.4) at 25° C. for 90 minutes. […] The neuronal nicotinic receptor (Nicotinic Neuronal) was assayed using receptors partially purified from rat cortical membranes. The radioligand used was [^3 H] N-methylcarbamylcholine iodide at a final ligand concentration of 5 nM. Non-specific binding was determined in the presence of 1 μM nicotine sulfate. The assay reactions were carried out in 50 mM Tris-HCl (pH 7.4) containing 120 mM NaCl, 5 mM KCl, 2 mM CaCl2, 1 mM MgCl2, and 3 μM atropine sulfate at 4° C. for 60 minutes. […] To determine how the substances inhibit the corticotropin releasing factor (CRF) partially purified receptor from rat cortical membranes was used as the receptor preparation. […] Tyr-° CRF at a final ligand concentration of 0.1 nM. Non-specific binding was determined in the presence of 1 μM Tyr-° CRF. The reactions were carried out in 50 mM HEPES containing 10 mM MgCl2, 2 mM EGTA, 0.12 TIU/ml aprotinin and 0.3% BSA at 25° C. for 120 minutes. The reaction is terminated by centrifugation in a Sorvall centrifuge for 15 minutes at 4° C.

herpes simplex = conditions: cited from earlier work
murine cytomegalovirus = conditions: cited from earlier work
stability = type: physicochemical; conditions: our data
From the text: Some botanicals, such as St. John's Wort, are both temperature and light sensitive. For this type of botanical the material should be dry packed with a refrigerant or shipped under refrigeration and protected from light and air. […] Stability (in absence of air) was increased to six months in a preparation extracted with ethanol.
Phloroglucinola include hyperforin (prenylated derivative of phloroglucinol), adhyperforin (similar to the bitter principle of hops, adhumulone).

Sindbis virus = conditions: cited from earlier work
[4] = system: human immunodeficiency virus type 1 (HIV-1); conditions: cited from earlier work
[5] = system: equine infectious anemia virus; conditions: cited from earlier work
protein kinase C = conditions: cited from earlier work
monoamine oxidase B [6] = conditions: reference compounds; read-out: inhibition of monoamine oxidase B IC50; cited from earlier work
monoamine oxidase B [7] = experiment: MAO-B enzyme activity, rat liver mitochondrial fraction, [3H]dopamine; type: biochemical; conditions: read-out: MAOB (concentration)
Procedure: MAO-B enzyme activity is assayed in a mitochondrial fraction isolated from rat liver by differential centrifugation. […] Following 20 minutes incubation at 37° C., the reaction is terminated by the addition of 5% HCl. The radioactivity of [^3 H]dopamine in an extraction was determined.

[8] = system: muscarinic receptor for the central nervous system; experiment: muscarinic receptor for the central nervous system (M1 Central), [3H] QNB, rat cortical membranes; type: binding; conditions: 10^-4; 100 µM
Procedure: Fourteen additional bioassays were preformed on either extracts, fractions or reference compounds for this botanical. To measure inhibition of [^3 H] PK11195 to the benzodiazepine receptor (BDZ) a partially purified receptor preparation was made from rat kidney membranes. The final radioactive ligand concentration was 1 nM and non-specific binding was measured using 200 nM cold PK11195. The substances, receptor and ligand were reacted in 50 mM Tris-HCL (pH 7.7) at 0-4° C. for 60 minutes. The reaction was terminated by rapid filtration of the samples through glass fiber filters. […] The inhibition of [^3 H] pinrenzepine to the muscarinic M1 receptor (M1) by the substances was measured using a partially purified receptor from bovine striatal membranes. The final hot ligand concentration was 1 nM and non-specific binding was determined in the presence of 100 nM atropine. […] The reactions were terminated by rapid vacuum filtration of the reaction mixture through glass fiber filters. […] To assay for biological activity for the muscarinic receptor for the central nervous system, receptor was partially purified from rat cortical membranes. […] Non-specific binding was determined in the presence of 100 nM atropine. […] Non-specific binding was determined using 1 mM NMDA. […] Non-specific binding was determined using 100 μM AMPA.

MAOA = molecular target: T2, MAOA (Rattus norvegicus, UniProt P21396); experiment: MAOA enzymatic activity, rat liver mitochondrial membranes, [14C] serotonin; type: biochemical; set-up: using rat liver mitochondrial membranes as a partially purified enzyme source; from tissue; host or cells: rat liver mitochondrial membranes
T2 sequence (P21396 1-526): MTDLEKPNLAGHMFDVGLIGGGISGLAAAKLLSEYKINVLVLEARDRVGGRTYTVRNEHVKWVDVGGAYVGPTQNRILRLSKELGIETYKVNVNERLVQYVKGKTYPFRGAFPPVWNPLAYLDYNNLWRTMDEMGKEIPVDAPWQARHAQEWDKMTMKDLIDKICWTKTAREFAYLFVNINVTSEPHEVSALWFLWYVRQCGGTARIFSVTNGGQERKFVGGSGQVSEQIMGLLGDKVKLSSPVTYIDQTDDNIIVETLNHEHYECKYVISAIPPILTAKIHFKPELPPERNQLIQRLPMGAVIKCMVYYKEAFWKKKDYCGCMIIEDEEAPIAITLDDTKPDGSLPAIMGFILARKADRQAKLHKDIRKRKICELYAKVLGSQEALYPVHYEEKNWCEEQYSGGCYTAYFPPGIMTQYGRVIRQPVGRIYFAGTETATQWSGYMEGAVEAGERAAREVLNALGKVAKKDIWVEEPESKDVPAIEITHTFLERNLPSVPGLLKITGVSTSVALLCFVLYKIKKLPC
Procedure: The inhibition of MAOA enzymatic activity (MAOA) was determined using rat liver mitochondrial membranes as a partially purified enzyme source. […] The reaction involves the conversion of the substrate to [^14 C] 5-hydroxyl indoleacetaldehyde+NH4^+. In brief, the enzyme is preincubated with the substances and the subtype specific blocker deprenyl (at 300 nM) for 60 minutes at 37° C. in 100 mM KPO4 (pH 7.2). Substrate is added and incubated for an additional 10 minutes. The reaction is terminated by the addition of 0.5 ml of 2M citric acid. […] Nitric oxide synthetase activity was measured using a binding assay (NOS). The receptors were made by partial purification of material from rat brain membranes. The radioligand used was [^3 H] L-N^G -Nitro-Arginine (NOARG) at a final concentration of 5 nM. Non-specific binding was determined using 100 μM of NOARG. The assay reactions were carried out in 50 mM Tris-HCl (pH 7.4) for 60 minutes at 25° C.

[9] = molecular target: glutamate receptor, NMDA agonist site; conditions: cited from earlier work
Monoamine Oxidase A = conditions: read-out: Inhibition of Monoamine Oxidase A Activity IC50; cited from earlier work
GABAA receptor = conditions: read-out: Ki(nM) GABAA reference compounds; cited from earlier work

T1 sequence (P31652 whole entry): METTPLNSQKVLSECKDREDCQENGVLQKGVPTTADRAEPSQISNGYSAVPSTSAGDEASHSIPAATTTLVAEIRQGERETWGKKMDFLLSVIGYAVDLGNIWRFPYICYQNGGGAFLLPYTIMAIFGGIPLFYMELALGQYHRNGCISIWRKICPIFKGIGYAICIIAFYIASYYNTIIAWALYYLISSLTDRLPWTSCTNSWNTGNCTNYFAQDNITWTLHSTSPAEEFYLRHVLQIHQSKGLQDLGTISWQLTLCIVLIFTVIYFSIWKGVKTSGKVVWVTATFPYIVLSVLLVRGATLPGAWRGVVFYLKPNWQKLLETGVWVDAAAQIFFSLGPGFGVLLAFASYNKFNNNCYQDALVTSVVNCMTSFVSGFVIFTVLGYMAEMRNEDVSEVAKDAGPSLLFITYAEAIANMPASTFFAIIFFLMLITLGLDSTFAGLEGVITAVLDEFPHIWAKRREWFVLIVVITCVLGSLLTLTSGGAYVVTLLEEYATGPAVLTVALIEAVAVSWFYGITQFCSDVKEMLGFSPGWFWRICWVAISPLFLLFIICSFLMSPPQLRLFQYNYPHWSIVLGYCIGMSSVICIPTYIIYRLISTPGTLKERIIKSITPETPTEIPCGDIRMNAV

C[C@@H]1O[C@@H](OC[C@H]2O[C@@H](Oc3c(-c4ccc(O)c(O)c4)oc4cc(O)cc(O)c4c3=O)[C@H](O)[C@@H](O)[C@@H]2O)[C@H](O)[C@H](O)[C@H]1O [Rutin, rutin]
5-HT Reuptake (Table 8, words) (serotonin transporter [1]): Negativee

O=[N+]([O-])c1ccc2nc(N3CCNCC3)ccc2c1 [6-NO-Quipazine]
IC50 (serotonin transporter [2]; Reference Data): 3400 nM | nH (serotonin transporter [2]; Reference Data): 0.7400

CC(C)OC(=O)[C@H]1[C@@H](c2ccc([125I])cc2)C[C@@H]2CC[C@H]1N2C [[^125 I]-RTI-121]
Kd (serotonin transporter [2]; radioligand): 1.1 nM

CN(C)CCCN1c2ccccc2CCc2ccccc21 [imipramine]
down-regulation of β-adrenergic receptors (β-adrenergic receptors): 25%

CC(C)=CCCC1(C)C(CC=C(C)C)CC2(CC=C(C)C)C(=O)C(CC=C(C)C)=C(O)C1(C(=O)C(C)C)C2=O (stereo not shown) [Hyperforin, hyperforin]
antibacterial / antifungal / antibiotic effect (bacteria, fungi): antibiotic effect greater than that of sulfonilamide | degradation time [3]: 14 days

O=c1c2cc(O)c(O)cc2oc2cc(O)c([C@@H]3O[C@H](CO)[C@@H](O)[C@H](O)[C@H]3O)c(O)c12 [Magniferin, mangiferin]
5-HT Reuptake (Table 8, words) (serotonin transporter [1]): Negative

C[C@@H]1O[C@@H](Oc2c(-c3ccc(O)c(O)c3)oc3cc(O)cc(O)c3c2=O)[C@H](O)[C@H](O)[C@H]1O [Quercitrin, quercitrin]
5-HT Reuptake (Table 8, words) (serotonin transporter [1]): Negative | inhibition at 100 µM (serotonin transporter [1]; 10^-4, read-out: Sero): 39% | inhibition at 100 µM (serotonin transporter [1]; 10^-4 M, read-out: Sero % inhibition (PharmaPrint range)): 40 ± 20% | ADNS (adenosine receptor): 45% | AD,NS % inhibition (PharmaPrint range) (adenosine receptor; 10^-4 M): 45 ± 20%

CCC(C)C(=O)[C@]12C(=O)[C@](CC=C(C)C)(C[C@H](CC=C(C)C)[C@@]1(C)CCC=C(C)C)C(=O)C(CC=C(C)C)=C2O (stereo partly shown) [Adhyperforin, adhyperforin]
degradation time [3]: 14 days

Cc1cc(O)c2c(=O)c3c(O)cc(O)c4c5c(O)cc(O)c6c(=O)c7c(O)cc(CO)c8c1c2c(c34)c(c65)c78 [pseudohypericin]
inhibition of herpes simplex (herpes simplex): inhibit | activity against murine cytomegalovirus (murine cytomegalovirus): Activity has also been reported | stability in solution (stability): unstable in solution | activity against Sindbis virus (Sindbis virus): Activity has also been reported | inhibition of HIV-1 [4]: inhibit | activity against equine infectious anemia virus [5]: Activity has also been reported | protein kinase C IC50 (protein kinase C): 15 µg/mL

NCCNC(=O)c1cccc(I)c1 [N-(2-aminoethyl)-3-iodobenzamide hydrochloride]
IC50 (monoamine oxidase B [6]): 1700 nM

O=c1c(O)c(-c2ccc(O)c(O)c2)oc2cc(O)cc(O)c12 [Quercetin, quercetin]
IC50 (monoamine oxidase B [7]): 2400 nM | 5-HT Reuptake (Table 8, words) (serotonin transporter [1]): Negative | ADNS (adenosine receptor): 45% and 27% | M1 Central [8]: 27% | MAOA (Table 8, words) (MAOA): verified the MAOA activity | IC50 (MAOA; read-out: MAOA (concentration)): 8200 nM

CCCC(=CC(N)C(=O)O)CP(=O)(O)O (stereo not shown) [[^3 H]-CGP 39653]
Kd ([9]; radioligand, read-out: KD (binding affinity)): 7 nM

c1cc2c(cc1C1CCCCC1)c1c3n2CCNC3CCC1 (stereo not shown) [Tetrindole Mesylate]
IC50 (Monoamine Oxidase A): 46 nM

O=C(O)C1=CCNCC1 [Isoguvacine]
Ki (GABAA receptor): 9.5 nM

c1ccc2nc(N3CCNCC3)ccc2c1 [Quipazine maleate]
nH (serotonin transporter [2]; Reference Data): 0.8550

CN[C@H](CC(=O)O)C(=O)O [NMDA, N-methyl-D-aspartic acid]
Ki ([9]; read-out: Ki(nM) NMDA reference compounds): 9300 nM

NCc1cc(=O)[nH]o1 [Muscimol]
Ki (GABAA receptor): 4.4 nM

O=c1c(O[C@@H]2O[C@H](CO)[C@H](O)[C@H](O)[C@H]2O)c(-c2ccc(O)c(O)c2)oc2cc(O)cc(O)c12 [Hyperoside, hyperoside]
5-HT Reuptake (Table 8, words) (serotonin transporter [1]): Negative

O=c1[nH]oc2c1CCNC2 [THIP, 4,5,6,7Tetrahydroisoxazolo[5,4c]pyridin3(2H)one]
Ki (GABAA receptor): 25.1 nM

Cc1ccc2c(c1)c1c3n2CCNC3CCC1 (stereo not shown) [Pirlindole Mesylate]
IC50 (Monoamine Oxidase A): 16 nM
